Assay results from patent US6800772B2, “Carboxylic acids and derivatives thereof and pharmaceutical compositions containing them” (Yissum Research Development Company of the Hebrew …, priority 1997, dated 2004).

Legend:
[1] = test system: Rats; assay: Experiment I: rats fed chow supplemented with compound for 6 days; plasma lipids, glucose, food intake; type: in vivo; settings: 0.1% (w/w) in diet
Experimental: Rats (n=5 for each treatment group) were fed ad libitum on Purina chow for 6 days, the diet being supplemented with 0.1% (w/w) γ,γ′-methyl substituted α,ω-dioic acids of formula (II) (Ex. 1, Ex. 3, Ex. 4) in the diet. The biological effect in vivo was evaluated by following food intake, plasma triglycerides, plasma cholesterol and plasma glucose.

[2] = test system: Rats; assay: Experiment II: rats fed chow supplemented with compound for 5 days; plasma triglycerides, apo C-III, insulin; type: in vivo
Experimental: (§1) Rats (n=5 for each treatment group) were fed ad libitum on purina chow for 5 days, the diet being supplemented with either γ,γ′-methyl substituted α,ω hexadecanedioic acid (formula (II). Ex. 3) or β,β′-methyl substituted α,ω-hexadecanedioic acid (U.S. Pat. No. 4,634,795) at a dosage of 0.09% (w/w) in the diet. The biological effect in vivo was evaluated by following plasma triglycerides, plasma apolipoprotein(apo)C-III, plasma insulin and the steady state concentrations (Css) of the respective drugs in plasma. Fold efficacy of the γ,γ′-substituted compound (Ex. 3) relative to the β,β′-substituted compound was calculated by normalizing the observed effect by the respective Css attained.

[3] = test system: Rats; assay: Experiment III: conditions as in Experiment II; plasma lipids, apo C-III, glucose, insulin; type: in vivo
Experimental: as §1
Conditions as in Experiment II using α,α′-methyl-substituted α,ω-tetradecanedioic acid.
Fold efficacy represents the respective effect induced by the α,α′-substituted compound (Ex. 5) relative to that of the β,β′-substituted compound.

[4] = observed effect normalized by respective Css, relative to β,β′-substituted compound
[5] = rats, 0.09% (w/w) in diet, 5 days
[6] = effect of α,α′-substituted compound relative to β,β′-substituted compound
[7] = rats, conditions as in Experiment II

SMILES: CC(C)(CCCCCCCCC(C)(C)CCC(=O)O)CCC(=O)O [Ex. 3, 4,4,13,13-Tetramethylhexadecanedioic Acid]
- Food intake [1]: 19.3 ± 1.1 g/day
- Plasma cholesterol [1]: 62.4 ± 13.3 mg %
- Plasma glucose [1]: 138.8 ± 2.7 mg %
- Plasma triglycerides [1]: 28.8 ± 7.4 mg %
- Fold efficacy (γ,γ/β,β), plasma apo C-III [2, 4]: 7.7
- Fold efficacy (γ,γ/β,β), plasma insulin [2, 4]: 15.2
- Fold efficacy (γ,γ/β,β), plasma triglycerides [2, 4]: 8.2
- Plasma apo C-III [2, 5]: 12.0 ± 4.6 mg %
- Plasma insulin [2, 5]: 16 ± 6.1 µU/mL
- Plasma triglycerides [2, 5]: 19.9 ± 7.4 mg %

SMILES: CC(C)(CCCCCCCCCCC(C)(C)CCC(=O)O)CCC(=O)O [Ex. 4, 4,4,15,15-Tetramethyloctadecanedioic acid]
- Food intake [1]: 19.1 ± 1.2 g/day
- Plasma cholesterol [1]: 56.8 ± 10.8 mg %
- Plasma glucose [1]: 139.0 ± 9.0 mg %
- Plasma triglycerides [1]: 29.3 ± 10.4 mg %
- melting point: 71 to 72 °C

SMILES: CC(C)(CCCCCCC(C)(C)CCC(=O)O)CCC(=O)O [Ex. 1, 4,4,11,11-Tetramethyltetradecanedioic Acid]
- Food intake [1]: 18.6 ± 2.1 g/day
- Plasma cholesterol [1]: 64.1 ± 12.0 mg %
- Plasma glucose [1]: 127.8 ± 6.6 mg %
- Plasma triglycerides [1]: 24.8 ± 3.9 mg %
- melting point: 88 to 89 °C

SMILES: CC(C)(CCCCCCCCCCCCC(C)(C)C(=O)O)C(=O)O [Ex. 6, 2,2,15,15-Tetramethylhexadecanedioic Acid]
- Fold efficacy (α,α/β,β), plasma apo C-III [3, 6]: 3.7
- Fold efficacy (α,α/β,β), plasma cholesterol [3, 6]: 1.2
- Fold efficacy (α,α/β,β), plasma glucose [3, 6]: 1.1
- Fold efficacy (α,α/β,β), plasma insulin [3, 6]: 1.0
- Fold efficacy (α,α/β,β), plasma triglycerides [3, 6]: 1.78
- Plasma apo C-III [3, 7]: 17 ± 14 mg %
- Plasma cholesterol [3, 7]: 69.5 ± 9.7 mg %
- Plasma glucose [3, 7]: 104 ± 4 mg %
- Plasma insulin [3, 7]: 24.2 ± 7.3 µU/mL
- Plasma triglycerides ([3]; rats, conditions as in Experiment II (0.09% w/w in diet, 5 days)): 44.5 ± 14.0 mg %
